The values below come from patent US8703424B2, “Predicting human developmental toxicity of pharmaceuticals using human stem-like cells and metabolomics” (Stemina Biomarker Discovery, Inc., priority 2010, dated 2014).

In one series the test system is hESCs. In words: Arginine / ADMA fold change ratio (integrated EICs) in dosed hESCs vs controls. To be noted: for Arg fold change/ADMA fold change: EIC areas, controls vs. dosed. The method, then: All tested chemicals were purchased from Sigma-Aldrich (St. Louis, Mo.). Cells were dosed with drugs at a concentration equivalent to their published serum circulating therapeutic dosages. Dosing was performed on hESCs in 6-well plates in triplicate, i.e. three wells per plate. The plates were dosed in triplicate, so there were a total of nine dosed wells. In parallel, there were nine “control” wells, in which hESCs were cultured with mTeSR1 containing no drug, and three wells containing Matrigel with mTeSR1 medium without hESCs that served as medium controls. Lastly, three wells of dosed medium controls were prepared, containing Matrigel, mTeSR1 and drug, but no hESCs (FIG. 1). These medium controls provided baseline mass spectral data. On the first day of dosage, the determined concentration of drug was dissolved in mTeSR1, and then 2.5 mL of this solution was added to each dosed well of hESCs. Each day, for four days, the medium was removed and new dosed medium was added. On the fourth day, the medium was removed and added to acetonitrile to make a 40% acetonitrile solution, as outlined in the Sample Preparation section below.
Mass spectrometry was performed using an Agilent QTOF LC/MS system consisting of a G6520AA QTOF high resolution mass spectrometer capable of exact mass MS and MS/MS. In order to facilitate separation of small molecules with a wide range of polarity and to allow increased retention of hydrophilic species, Hydrophilic Interaction Liquid Chromatography (Alpert 1990) was employed. Each sample was run for 30 minutes with the gradient shown in Table 3 at a flow rate of 0.5 mL/min, using 0.1% formic acid in water (Solvent A) and 0.1% formic acid in acetonitrile (Solvent B). Electrospray ionization was employed using a dual ESI source, with an Agilent isocratic pump continuously delivering an internal mass reference solution into the source at approx. 0.01 mL/min. The mass range of the instrument was set to 100-1700 Da. A Phenomenex Luna HILIC column with dimensions 3×100 mm 3 μm particle size was used and maintained at 30° C. 5 μl of each sample was injected. Data acquisition was performed with Agilent MassHunter using high-resolution exact mass conditions.
Valproate is known to cause neural tube defects (DiLiberti et al. 1984) while nitric oxide synthase activity is essential for neural tube closure (Nachmany et al. 2006).

For series [1], the system named is WA09 hESCs. In words: LC-MS metabolomics: abundance changes of metabolites in hESCs dosed at circulating dose. In kind it is cell-based, human. How it is done: (§1) These medium controls provided baseline mass spectral data.
(§2) The 2.5 mL of spent media per well from Example 1 was added to 1.67 mL acetonitrile to make a 40% acetonitrile solution. The acetonitrile acts to “quench” the spent media sample, slowing or halting many metabolic processes and aiding in precipitation of cellular proteins. Samples were either stored at −80° C. for later analysis, or for immediate analysis, 250 μL of the quenched solution was mixed with 250 μL of water, to a final concentration of 20% acetonitrile, then added to a 3 kDa molecular weight cut-off filter spin column (Microcon YM-3 Centrifugal Filter, Millipore, Billerica, Mass.). Each sample was then centrifuged in an IEC CL31R Multispeed Centrifuge (Thermo Scientific, Waltham, Mass.) at 13,000×g at 4° C. for 200 minutes. Following centrifugation, the flow-through was saved then dried for several hours in a Savant High Capacity Speedvac Plus Concentrator. The concentrated sample was then dissolved in 50 μL of 0.1% formic acid prior to LC-MS analysis.
(§3) 5 μl of each sample was injected.
(§4) Following LC-MS, chromatograms were inspected for reproducibility. LC-MS runs with total ion counts that vary by more than 25% were repeated to ensure that samples could be accurately compared. These runs were then used to create mass features that correspond to molecules detected across the different LC-MS runs. Mass features were extracted from the LC-MS data using MassHunter Qualitative Analysis software (Agilent Technologies). The following criteria were used as general guidelines, however some flexibility and optimization was needed. m/z values within the range of 75-1500, with a charge of +1 or −1, and a centroid height greater than 1000 were used to generate “mass features.” The mass peaks that pass these criteria were used to fit isotope and adduct (Na^+, K^+, and NH4^+) patterns corresponding to individual molecules, and to establish the abundance of each mass feature. The abundance is calculated by MassHunter software as the sum of the isotopic and adduct peaks that correspond to a single molecular feature. After data deconvolution, mass features showing at least two ions (e.g. (M^+H)^+ and (M^+H)^++1 or (M^+H)^+ and (M^+Na)^+) and an abundance value greater than 50000 for positive-ion mode data and 10000 in negative-ion mode data were included in the data set used for binning of the mass features.
The media represents a major factor in the experimental system, in that it contributes many peaks to mass spectra. This can be accounted for in a data dependent manner to select for mass feature bins, which are present at significant levels above the media. Mass feature bins present solely in the presence of cells (not detected in media) or with average abundance levels different than uncultured media were considered to be secreted, excreted, consumed, or identified metabolites.
The exact mass of the metabolite must be within 10 ppm of the known mass of the compound. 2) The retention time of the metabolite detected in the cell media must be within + or −30 seconds of a reference standard on which MS data had been acquired under the same conditions. The reference standards were dissolved in mTeSR media and prepared in exactly the same manner (described above) as the samples from the cells, including the addition of acetonitrile, Centricon centrifugal filtration, drying then dissolution in formic acid prior to LC-MS analysis. 3) The MS-MS fragmentation spectra of the metabolite detected in the cell media must be a reasonable match with that of the reference standard, including abundances and m/z values of the fragment ions. If published MS-MS spectra are available, the MS-MS spectra must also be a reasonable match.

The subject of series [2] is WA09 human embryonic stem (hES) cells. In words: PLS-DA prediction of teratogenicity from secretome of treated hES cells (Example 9). The settings on record: DevTox pharmaceutical.
Source text: These included 11 known teratogens and 11 known non-teratogens. The current model is based on the mean fold change (treatment versus its associated intra-experimental control) of 15 metabolites common among the secretome of hES cells treated with pharmaceutical agents and unknown chemical compounds.
The subject of series [3] is WA09 hESCs. In words: Random forest prediction of teratogenicity from metabolomics of spent media of dosed hESCs. In kind it is cell-based, human. To be noted: for Classification by the refined random forest model (FIG. 3): 18-feature model, 26 drug treatment experiments; for Predicted teratogenicity (random forest statistical model): blind study, model trained on TS1, 142 mass features, circulating dose. How it is done: WA09 hESCs, obtained from WiCell Research Institute (NIH National Stem Cell Bank, Madison, Wis.) were cultured in 6-well plates on Matrigel (BD Biosciences, San Jose, Calif.), in mTeSR1 medium (Stem Cell Technologies, Vancouver, BC) incubated at 37° C. under 5% CO2 in a Thermo Electron Form a Series II Water Jacket CO2 Incubator. hESCs were passaged every three or four days at a 1:3 or 1:6 seeding density for routine culture conditions. For dosing experiments, hESCs were passaged at a low density of 1:10 or 1:12 so that they would not require passaging during the […] dosing protocol. To passage hES cells, the StemPro® EZPassage™ disposable stem cell passaging tool (Invitrogen, Carlsbad, Calif.) was used to detach the cells from the wells. Detached cells were removed with a pipette and distributed to new Matrigel plates.
as §1, §2, §3, §4
Following feature selection by MassHunter, the data was further preprocessed by MassProfiler (Agilent) software which aligns mass features across multiple LC-MS data files. Mass features were generated for data from each drug treatment experiment (dosed and control) using the default alignment settings in MassProfiler with the requirement that a feature be present in at least 80% of the samples in one treatment. The mass feature datasets for each drug treatment experiment were further processed in a global manner using custom analysis scripts executed in the R statistical software environment. […]

[4] abbreviates: high dose (H = 10x circulating dose).
The mark [5] stands for this setting: low dose (L = 0.1x circulating dose).

Structures are written as SMILES.

Consider `NC(=O)NO` [Hydroxyurea], for which, in the series with hESCs, the “Arg/ADMA Prediction” value is given as “Ter” and the “Arg fold change/ADMA fold change” value was found to be 2.52. Also, the “Abundance of succinic acid” value with WA09 hESCs [1] (drug-treated vs control) was “significant down regulation”. In series [2] (setting [4]), the “% Non (PLS-DA class probability non-teratogen)” value (“% Non” for short) was 0.32, the “% Ter (PLS-DA class probability teratogen)” value (from here on “% Ter”) is given as 0.68, the “Confidence (difference between class probabilities)” value was 0.36 and the Prediction result is reported as “Ter”. In series [2] (setting [5]), the “% Non” value is 0.64, the “% Ter” value was 0.36, the “Confidence (difference between class probabilities)” value is given as 0.28 and the Prediction entry is reported as “Non”.

Consider `CO[C@H]1/C=C/O[C@@]2(C)Oc3c(C)c(O)c4c(O)c(c(/C=N/N5CCN(C)CC5)c(O)c4c3C2=O)NC(=O)/C(C)=C\C=C\[C@H](C)[C@H](O)[C@@H](C)[C@@H](O)[C@@H](C)[C@H](OC(C)=O)[C@@H]1C` [Rifampicin], for which, in the series on WA09 hESCs [3], the “Classification by the refined random forest model (FIG. 3)” value was “misclassified as non-teratogens” and the “Predicted teratogenicity (random forest statistical model)” value (from here on “Predicted teratogenicity”) is listed as “Ter”. Also, in the series with hESCs, the “Arg/ADMA Prediction” value is on record as “Ter” and the “Arg fold change/ADMA fold change” value is 0.81. In series [2] (setting [4]), the “% Non” value was 0.27, the “% Ter” value is 0.73, the “Confidence (difference between class probabilities)” value is on record as 0.46 and the Prediction entry is listed as “Ter”. In series [2] (setting [5]), the “% Non” value was 0.46, the “% Ter” value is reported as 0.54, the “Confidence (difference between class probabilities)” value is reported as 0.08 and the Prediction entry is listed as “Ter”.

Consider `Nc1ccn([C@@H]2O[C@H](CO)[C@@H](O)[C@@H]2O)c(=O)n1` [Cytosine Arabinoside], for which, in the series with hESCs, the “Arg/ADMA Prediction” value was “Ter” and the “Arg fold change/ADMA fold change” value was found to be 67.01. In addition, the “Changes in metabolites on dosing” value in the series on WA09 hESCs [1] is on record as “most profound changes in many metabolites”. Further, in the series with WA09 hESCs [1] (drug-treated vs control), the “Abundance of succinic acid” value is “significant down regulation”.

Consider `CS(=O)(=O)OCCCCOS(C)(=O)=O` [Busulfan], for which, in the series with hESCs, the “Arg/ADMA Prediction” value is on record as “Ter” and the “Arg fold change/ADMA fold change” value was 1.12. Further, the “Concentration of GABA in the secretome of hESCs” value in the series with WA09 hESCs [1] (dosed hESCs) is given as “Increased concentrations”. Besides, in series [2] (setting [4]), the “% Non” value was 0.28, the “% Ter” value is 0.72, the “Confidence (difference between class probabilities)” value is on record as 0.44 and the Prediction entry was “Ter”. In series [2] (setting [5]), the “% Non” value was 0.29, the “% Ter” value is recorded as 0.71, the “Confidence (difference between class probabilities)” value is recorded as 0.42 and the Prediction entry is on record as “Ter”.

With `CCCCc1oc2ccccc2c1C(=O)c1cc(I)c(OCCN(CC)CC)c(I)c1` [Amiodarone], the “Predicted teratogenicity” value with WA09 hESCs [3] is “Ter”. Further, in the series on hESCs, the “Arg/ADMA Prediction” value was “Ter” and the “Arg fold change/ADMA fold change” value turned out to be 1.64.

For the molecule `O=c1[nH]cc(F)c(=O)[nH]1` [5-Fluorouracil], in the series with hESCs, the “Arg/ADMA Prediction” value is “Ter” and the “Arg fold change/ADMA fold change” value was 43.93. Also, the “Changes in metabolites on dosing” value in the series on WA09 hESCs [1] is “most profound changes in many metabolites”. Besides, in the series with WA09 hESCs [1] (drug-treated vs control), the “Abundance of succinic acid” value was “significant down regulation”. Also, in series [2] (setting [4]), the “% Non” value was 0.32, the “% Ter” value is given as 0.68, the “Confidence (difference between class probabilities)” value is on record as 0.36 and the Prediction result is listed as “Ter”. For the same molecule, in series [2] (setting [5]), the “% Non” value is given as 0.28, the “% Ter” value is given as 0.72, the “Confidence (difference between class probabilities)” value is on record as 0.44 and the Prediction result is listed as “Ter”.

For the molecule `CCCC(CCC)C(=O)O` [Valproic Acid], in the series with hESCs, the “Arg/ADMA Prediction” value is given as “Ter” and the “Arg fold change/ADMA fold change” value came to 2.11. Moreover, in the series on WA09 hESCs [1] (drug-treated vs control), the “Abundance of asymmetric dimethylarginine (ADMA)” value is “significant fold decrease” and the “Abundance of succinic acid” value is on record as “significant down regulation”.

As for `CC1=C(/C=C/C(C)=C/C=C/C(C)=C\C(=O)O)C(C)(C)CCC1` [Accutane], in the series with WA09 hESCs [3], the “Classification by the refined random forest model (FIG. 3)” value is reported as “misclassified as non-teratogens” and the “Predicted teratogenicity” value is recorded as “Non”. In the series on hESCs, the “Arg/ADMA Prediction” value is recorded as “Ter” and the “Arg fold change/ADMA fold change” value amounted to 0.55. Moreover, in series [2] (setting [4]), the “% Non” value is given as 0.3, the “% Ter” value is reported as 0.7, the “Confidence (difference between class probabilities)” value is 0.4 and the Prediction entry is on record as “Ter”. Moreover, in series [2] (setting [5]), the “% Non” value is reported as 0.33, the “% Ter” value was 0.67, the “Confidence (difference between class probabilities)” value is on record as 0.34 and the Prediction result is on record as “Ter”.
